Experimental data as given in ChEMBL document CHEMBL1201862, “PubChem BioAssay data set” (2004).
The source made the active and inactive calls.

Columns and labels:
[1] = system: Vero; assay: mammalian cell viability reduction – secondary assay, cytotoxicity control for West Nile virus antiviral project, dose response (AID 1650); type: functional; settings: Chlorocebus sabaeus
[2] = system: Vero; assay: inhibition of WNV-induced cytopathic effect – cell-based, CPE readout (AID 1621); type: functional; settings: Chlorocebus sabaeus
[3] = biological target: T1, Induced myeloid leukemia cell differentiation protein Mcl-1 (Homo sapiens, UniProt Q07820); type: functional
[4] = Luminescence Cell-Based Dose Retest to Confirm Inhibitors of Cancer Stem Cells. [Related pubchem assays (depositor defined):AID2717, AID2721]; type: functional; settings: Homo sapiens
[5] = biological target: Protein-tyrosine kinase 2-beta (Homo sapiens, UniProt Q14289);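 note: potency of inhibitors of PYK2 kinase phosphorylation of poly-GT substrate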
[6] = biological target: Potassium voltage-gated channel subfamily KQT member 2 (Rattus norvegicus, UniProt O88943, W236L); assay: potentiation of rat KCNQ2 current – cell-based, automated electrophysiology, mechanism study for KCNQ2 potentiator project, dose response (AID 2603); type: functional
[7] = biological target: Peroxisome proliferator-activated receptor gamma/Nuclear receptor corepressor 2 (Homo sapiens, UniProt P37231+Q9Y618); assay: Counterscreen for NR2E3 inverse agonists: TR-FRET-based biochemical high throughput dose response assay to identify inverse agonists of the interaction between peroxisome proliferator-activated receptor gamma (PPARg) and nuclear receptor co-repressor 2 (NCOR2).; type: functional
[8] = biological target: Photoreceptor-specific nuclear receptor (Homo sapiens, UniProt Q9Y5X4); assay: ligands suppressing NR2E3 nuclear receptor activity – biochemical, TR-FRET, dose response (AID 463256); type: functional
[9] = biological target: T2, Small ubiquitin-related modifier 1 (Homo sapiens, UniProt P63165); assay: SUMO1 protein interaction blockers, potency – biochemical, fluorescence polarization, uHTS hits, dose response (AID 624382); type: functional; settings: read-out: IC50_Mean
[10] = biological target: T2, Small ubiquitin-related modifier 1; assay: SUMO1 protein-protein binding blockers, potency – biochemical, FRET, dose response (AID 624383); type: functional; settings: read-out: IC50_Mean
[11] = biological target: T3, E3 ubiquitin-protein ligase XIAP (Homo sapiens, UniProt P98170); assay: Counter Screen using XIAP-Bir3 for Chemical Antagonists of Bir1/2 domains of IAP-family anti-apoptotic proteins. [Related pubchem assays (depositor defined):AID1018, AID1449, AID1514, AID1638, AID1749, AID1750, AID488957, AID488963]
[12] = biological target: T3, E3 ubiquitin-protein ligase XIAP; assay: small molecules displacing peptide from XIAP – biochemical, IAP family, fluorescence polarization (AID 1018); type: functional
[13] = Luminescent dose response cell-based high throughput screening assay for inhibitors of the Janus kinase 2 mutant JAK2V617F. [Related pubchem assays: 1446 (Primary screen.), 1521 (Confirmation assay.), 1486 (Counter screen.)]; type: functional
[14] = biological target: Glyceraldehyde-3-phosphate dehydrogenase (Homo sapiens, UniProt P04406)
[15] = biological target: T4, Bcl-2-related protein A1 (Mus musculus, UniProt Q07440); assay: small-molecule antagonists of Bfl-1/BH3 interaction – biochemical, TR-FRET, mouse Bfl-1, confirmation (AID 621);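 note: TR-FRET binding of GST-Bfl-1 to FITC-labelled Bid peptide via terbium antibody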
T4 sequence (Q07440 whole entry): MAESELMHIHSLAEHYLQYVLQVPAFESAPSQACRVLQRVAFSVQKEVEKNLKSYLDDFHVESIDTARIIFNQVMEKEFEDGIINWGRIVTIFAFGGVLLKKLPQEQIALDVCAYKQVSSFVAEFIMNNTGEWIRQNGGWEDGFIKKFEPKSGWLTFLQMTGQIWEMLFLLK

[16] = biological target: T4, Bcl-2-related protein A1; assay: Bfl-1 binding inhibitors, SAR follow-up, biochemical, fluorescence polarization (AID 1070)
[17] = biological target: Oxytocin receptor (Homo sapiens, UniProt P30559); assay: Fluorescence-based cell-based high throughput dose response assay for potentiators of Oxytocin Receptor (OXTR). [Related pubchem assays: 434985 (Confirmation screen (OXTR potentiators in triplicate)), 2481 (Summary (OXTR potentiators)), 2445 (Primary screen (OXTR potentiators in singlicate))]; type: functional
[18] = mitochondrial function rescue without frataxin homolog – Friedreich's ataxia, plus single-dose screen, dose response (AID 1465); type: functional;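 note: yeast depleted of Yfh1p frataxin homolog grown on glycerol needing respiration; WST-1 tetrazolium dye reduction as measure of cellular dehydrogenase metabolic activity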
[19] = biological target: T5, Heat shock factor protein 1 (Mus musculus, UniProt P38532); assay: enhancement of HSF1-driven luciferase signal – cell-based, NIH3T3, luminescence, dose retest, confirmation (AID 435004); type: functional;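 note: stress induced by proteasome inhibitor MG132 added 30 min after compound; luciferase reporter driven by HSF1 response element in NIH3T3 cells; actives raise luminescence as potentiators of the MG132 stress response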
T5 sequence (P38532 whole entry): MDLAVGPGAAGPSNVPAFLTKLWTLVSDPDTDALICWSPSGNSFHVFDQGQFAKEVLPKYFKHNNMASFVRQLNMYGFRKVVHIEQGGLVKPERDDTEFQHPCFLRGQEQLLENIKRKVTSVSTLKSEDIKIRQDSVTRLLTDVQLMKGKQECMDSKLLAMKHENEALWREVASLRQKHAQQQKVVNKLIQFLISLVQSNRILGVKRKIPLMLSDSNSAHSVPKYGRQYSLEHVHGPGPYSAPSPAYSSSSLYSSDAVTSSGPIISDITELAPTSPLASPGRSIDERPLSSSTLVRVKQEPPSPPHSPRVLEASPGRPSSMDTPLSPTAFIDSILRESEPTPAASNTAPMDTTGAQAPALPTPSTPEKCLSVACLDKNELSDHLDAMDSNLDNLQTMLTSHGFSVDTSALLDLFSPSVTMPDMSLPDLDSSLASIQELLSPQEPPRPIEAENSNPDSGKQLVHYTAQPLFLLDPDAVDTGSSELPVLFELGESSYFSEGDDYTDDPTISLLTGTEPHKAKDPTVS

[20] = biological target: T6, Microphthalmia-associated transcription factor (Homo sapiens, UniProt O75030); assay: reducers of TRPM1 reporter luminescence, concentration series – cell-based, SK-MEL-5, cherry-picked, set 3, MITF inhibitor project, dose response (AID 493073); type: functional;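 note: SK-MEL-5 melanoma cells with luciferase driven by the MITF target TRPM1 promoter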
T6 sequence (O75030 whole entry): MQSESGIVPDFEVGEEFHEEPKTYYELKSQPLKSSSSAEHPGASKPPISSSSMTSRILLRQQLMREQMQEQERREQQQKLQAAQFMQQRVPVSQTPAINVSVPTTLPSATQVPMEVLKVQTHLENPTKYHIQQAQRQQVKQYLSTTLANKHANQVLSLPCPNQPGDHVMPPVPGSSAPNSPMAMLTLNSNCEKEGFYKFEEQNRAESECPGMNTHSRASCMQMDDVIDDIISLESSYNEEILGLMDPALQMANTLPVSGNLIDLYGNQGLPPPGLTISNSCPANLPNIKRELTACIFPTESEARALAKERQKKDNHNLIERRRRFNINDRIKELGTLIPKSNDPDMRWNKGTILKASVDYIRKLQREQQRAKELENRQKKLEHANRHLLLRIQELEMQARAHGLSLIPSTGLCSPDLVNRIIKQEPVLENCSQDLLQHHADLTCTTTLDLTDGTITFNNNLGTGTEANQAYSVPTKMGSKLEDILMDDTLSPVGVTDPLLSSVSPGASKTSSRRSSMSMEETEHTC

[21] = Trypanosoma cruzi growth suppression in host cells – NIH3T3 host cells, beta-gal luminescence, confirmation (AID 2044); type: functional, cell-based;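 note: intracellular parasites grown in NIH/3T3 mouse fibroblasts as host cells; luminescent beta-galactosidase reporter signal from transgenic T. cruzi replicating inside host cells; inhibitors lower the luminescence signal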
[22] = NIH3T3 cell viability loss – ATP luminescence, mouse fibroblasts, counter-screen, dose response (AID 2010); type: functional, cell-based;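 note: cells exposed to compound for about 90 hours before reading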
[23] = cells; type: functional
[24] = cells
[25] = biological target: T1, Induced myeloid leukemia cell differentiation protein Mcl-1; assay: blockers of MCL1 binding to BIM peptide – biochemical, fluorescence polarization, BIM-BH3 peptide, 1536-well, dose response (AID 2217)
[26] = biological target: Bcl-2-like protein 1 (Homo sapiens, UniProt Q07817); assay: blockers of BCLXL peptide binding – biochemical, fluorescence polarization, 1536-well, selectivity assay for MCL1 inhibitor project, dose response (AID 2218)
[27] = biological target: T7, Carboxy-terminal domain RNA polymerase II polypeptide A small phosphatase 1 (Homo sapiens, UniProt Q9GZU7); assay: CTDSP1 inhibitors, concentration-response, biochemical, absorbance readout, ultra-high-throughput screen actives (AID 540297); type: functional
T7 sequence (Q9GZU7 whole entry): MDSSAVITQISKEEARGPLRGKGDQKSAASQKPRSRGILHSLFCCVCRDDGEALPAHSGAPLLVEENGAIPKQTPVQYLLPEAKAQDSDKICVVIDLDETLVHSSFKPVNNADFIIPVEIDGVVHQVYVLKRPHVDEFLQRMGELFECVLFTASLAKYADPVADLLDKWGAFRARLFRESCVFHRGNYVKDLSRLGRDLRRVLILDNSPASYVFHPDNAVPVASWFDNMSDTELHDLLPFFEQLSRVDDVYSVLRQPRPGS

[28] = biological target: T8, Caspase-6 (Homo sapiens, UniProt P55212); assay: inhibition of CASP6 peptide cleavage – biochemical, VEID-R110 fluorescence, cherry-pick, dose response (AID 720632)
T8 sequence (P55212 whole entry): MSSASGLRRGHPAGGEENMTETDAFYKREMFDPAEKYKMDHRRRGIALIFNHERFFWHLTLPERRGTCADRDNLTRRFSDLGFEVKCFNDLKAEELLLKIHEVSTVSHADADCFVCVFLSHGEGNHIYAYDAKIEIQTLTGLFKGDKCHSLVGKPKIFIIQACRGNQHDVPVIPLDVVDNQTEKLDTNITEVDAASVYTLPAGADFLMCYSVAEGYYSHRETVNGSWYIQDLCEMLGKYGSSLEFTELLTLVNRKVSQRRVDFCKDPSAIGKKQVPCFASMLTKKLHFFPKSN

[29] = biological target: Caspase-7 (Homo sapiens, UniProt P55210); assay: caspase-7 enzyme inhibition, selectivity check – biochemical, DEVD-R110 fluorescence, cherry-pick, selectivity assay for caspase-6 inhibitor project, dose response (AID 743295); type: functional
[30] = biological target: Caspase-8 (Homo sapiens, UniProt Q14790); assay: inhibitors of purified CASP8 protease – biochemical, Z-IETD-R110 fluorescence, cherry-picked samples, selectivity assay for caspase-6 inhibitor project, dose response (AID 743294)
[31] = HPDE-C7 pancreatic duct cell viability loss – fluorescence, HTS (AID 430); type: functional, cell-based; settings: Homo sapiens
[32] = viability loss of HPDE-C7K cells – cell-based, fluorescence, HTS, primary screen (AID 431); type: functional; settings: Homo sapiens
[33] = Luminescence Cell-Based Dose Response to Identify Activators of 5'UTR Stem-Loop Driven Prion Protein mRNA Translation in H4-C Neuroglioblastoma Cells. [Related pubchem assays: 1829 (Project Summary), 1814 (Primary HTS)]; type: functional
[34] = Luminescence Cell-Based Dose Response HTS to Identify Activators of Luciferase Translation or Activity in H4 […] Cells. [Related pubchem assays: 1829 (Project Summary), 1814 (Primary HTS)]; type: functional
[35] = system: H4; assay: Luminescence Cell-Based Dose Response HTS to Identify Activators of 5'UTR Stem-Loop Driven Prion Protein mRNA Translation in H4 Neuroglioblastoma Cells. [Related pubchem assays: 1829 (Project Summary), 1814 (Primary HTS)]; type: functional; settings: Homo sapiens
[36] = Luminescence Cell-Based Dose Response to Identify Activators of Luciferase Translation or Activity in H4-C Neuroglioblastoma Cells. [Related pubchem assays: 1829 (Project Summary), 1814 (Primary HTS)]; type: functional
[37] = Luminescence Cell-Based Dose Confirmation to Identify Activators of 5'UTR Stem-Loop Driven Alpha-Synuclein mRNA Translation in H4 Neuroglioblastoma Cells. [Related pubchem assays: 1829 (Project Summary), 1814 (Primary HTS)]; type: functional
[38] = biological target: Sphingosine 1-phosphate receptor 2 (Homo sapiens, UniProt O95136); assay: Dose Response Cell Based Assay for Agonists of the S1P2 Receptor of Purchased Analogues. [Related pubchem assays: 729, 843, 854, 736 ]; type: functional

T3 sequence (P98170 whole entry): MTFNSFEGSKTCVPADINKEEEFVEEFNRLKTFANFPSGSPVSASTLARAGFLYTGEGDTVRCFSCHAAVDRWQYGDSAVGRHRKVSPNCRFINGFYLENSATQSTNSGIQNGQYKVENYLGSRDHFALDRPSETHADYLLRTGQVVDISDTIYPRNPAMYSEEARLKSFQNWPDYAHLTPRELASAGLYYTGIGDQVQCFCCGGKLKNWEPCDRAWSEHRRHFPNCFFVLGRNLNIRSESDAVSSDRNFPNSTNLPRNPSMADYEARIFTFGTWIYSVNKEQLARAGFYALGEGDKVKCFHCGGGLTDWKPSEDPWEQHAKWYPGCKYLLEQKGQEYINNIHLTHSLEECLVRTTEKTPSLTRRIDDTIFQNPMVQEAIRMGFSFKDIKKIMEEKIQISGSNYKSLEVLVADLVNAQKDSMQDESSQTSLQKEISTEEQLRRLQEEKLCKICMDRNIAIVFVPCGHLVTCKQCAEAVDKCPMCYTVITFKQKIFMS
T2 sequence (P63165 whole entry): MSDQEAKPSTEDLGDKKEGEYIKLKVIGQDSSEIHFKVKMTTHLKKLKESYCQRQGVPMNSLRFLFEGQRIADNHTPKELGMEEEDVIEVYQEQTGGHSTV
T1 sequence (Q07820 whole entry): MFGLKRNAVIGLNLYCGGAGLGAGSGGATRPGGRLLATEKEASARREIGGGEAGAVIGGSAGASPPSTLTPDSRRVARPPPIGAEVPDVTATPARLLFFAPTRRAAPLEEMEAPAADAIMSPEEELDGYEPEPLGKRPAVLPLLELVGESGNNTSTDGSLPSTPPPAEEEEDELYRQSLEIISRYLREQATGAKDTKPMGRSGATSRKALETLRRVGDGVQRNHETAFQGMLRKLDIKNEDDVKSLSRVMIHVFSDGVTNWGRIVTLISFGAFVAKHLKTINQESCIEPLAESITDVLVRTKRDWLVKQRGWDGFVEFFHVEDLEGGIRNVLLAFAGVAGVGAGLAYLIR
Chain of Oxytocin receptor (P30559 whole entry): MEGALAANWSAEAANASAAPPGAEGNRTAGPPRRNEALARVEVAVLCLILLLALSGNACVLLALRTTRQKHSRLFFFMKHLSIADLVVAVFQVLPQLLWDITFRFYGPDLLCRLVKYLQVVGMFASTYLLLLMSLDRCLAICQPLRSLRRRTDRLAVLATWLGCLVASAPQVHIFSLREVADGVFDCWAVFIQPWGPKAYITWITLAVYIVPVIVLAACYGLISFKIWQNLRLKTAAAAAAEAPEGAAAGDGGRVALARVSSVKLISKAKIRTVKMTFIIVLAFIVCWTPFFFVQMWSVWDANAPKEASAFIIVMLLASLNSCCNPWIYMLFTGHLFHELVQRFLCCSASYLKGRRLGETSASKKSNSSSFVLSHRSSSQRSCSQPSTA
Chain of Peroxisome proliferator-activated receptor gamma/Nuclear receptor corepressor 2 (P37231 whole entry): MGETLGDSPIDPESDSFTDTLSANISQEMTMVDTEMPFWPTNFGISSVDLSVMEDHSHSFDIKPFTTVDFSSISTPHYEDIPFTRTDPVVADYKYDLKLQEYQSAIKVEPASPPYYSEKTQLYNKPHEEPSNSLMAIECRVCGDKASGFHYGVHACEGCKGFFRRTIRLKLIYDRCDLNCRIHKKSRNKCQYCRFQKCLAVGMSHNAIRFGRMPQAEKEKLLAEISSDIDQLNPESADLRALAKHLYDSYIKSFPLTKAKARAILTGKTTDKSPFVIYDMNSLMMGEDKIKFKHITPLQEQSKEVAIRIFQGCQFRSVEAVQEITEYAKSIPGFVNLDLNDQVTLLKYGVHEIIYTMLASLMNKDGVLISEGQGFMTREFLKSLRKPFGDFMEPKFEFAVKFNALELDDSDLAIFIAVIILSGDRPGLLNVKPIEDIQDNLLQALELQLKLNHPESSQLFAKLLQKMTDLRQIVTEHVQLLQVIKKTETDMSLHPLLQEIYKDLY
Chain of Peroxisome proliferator-activated receptor gamma/Nuclear receptor corepressor 2 (Q9Y618 whole entry): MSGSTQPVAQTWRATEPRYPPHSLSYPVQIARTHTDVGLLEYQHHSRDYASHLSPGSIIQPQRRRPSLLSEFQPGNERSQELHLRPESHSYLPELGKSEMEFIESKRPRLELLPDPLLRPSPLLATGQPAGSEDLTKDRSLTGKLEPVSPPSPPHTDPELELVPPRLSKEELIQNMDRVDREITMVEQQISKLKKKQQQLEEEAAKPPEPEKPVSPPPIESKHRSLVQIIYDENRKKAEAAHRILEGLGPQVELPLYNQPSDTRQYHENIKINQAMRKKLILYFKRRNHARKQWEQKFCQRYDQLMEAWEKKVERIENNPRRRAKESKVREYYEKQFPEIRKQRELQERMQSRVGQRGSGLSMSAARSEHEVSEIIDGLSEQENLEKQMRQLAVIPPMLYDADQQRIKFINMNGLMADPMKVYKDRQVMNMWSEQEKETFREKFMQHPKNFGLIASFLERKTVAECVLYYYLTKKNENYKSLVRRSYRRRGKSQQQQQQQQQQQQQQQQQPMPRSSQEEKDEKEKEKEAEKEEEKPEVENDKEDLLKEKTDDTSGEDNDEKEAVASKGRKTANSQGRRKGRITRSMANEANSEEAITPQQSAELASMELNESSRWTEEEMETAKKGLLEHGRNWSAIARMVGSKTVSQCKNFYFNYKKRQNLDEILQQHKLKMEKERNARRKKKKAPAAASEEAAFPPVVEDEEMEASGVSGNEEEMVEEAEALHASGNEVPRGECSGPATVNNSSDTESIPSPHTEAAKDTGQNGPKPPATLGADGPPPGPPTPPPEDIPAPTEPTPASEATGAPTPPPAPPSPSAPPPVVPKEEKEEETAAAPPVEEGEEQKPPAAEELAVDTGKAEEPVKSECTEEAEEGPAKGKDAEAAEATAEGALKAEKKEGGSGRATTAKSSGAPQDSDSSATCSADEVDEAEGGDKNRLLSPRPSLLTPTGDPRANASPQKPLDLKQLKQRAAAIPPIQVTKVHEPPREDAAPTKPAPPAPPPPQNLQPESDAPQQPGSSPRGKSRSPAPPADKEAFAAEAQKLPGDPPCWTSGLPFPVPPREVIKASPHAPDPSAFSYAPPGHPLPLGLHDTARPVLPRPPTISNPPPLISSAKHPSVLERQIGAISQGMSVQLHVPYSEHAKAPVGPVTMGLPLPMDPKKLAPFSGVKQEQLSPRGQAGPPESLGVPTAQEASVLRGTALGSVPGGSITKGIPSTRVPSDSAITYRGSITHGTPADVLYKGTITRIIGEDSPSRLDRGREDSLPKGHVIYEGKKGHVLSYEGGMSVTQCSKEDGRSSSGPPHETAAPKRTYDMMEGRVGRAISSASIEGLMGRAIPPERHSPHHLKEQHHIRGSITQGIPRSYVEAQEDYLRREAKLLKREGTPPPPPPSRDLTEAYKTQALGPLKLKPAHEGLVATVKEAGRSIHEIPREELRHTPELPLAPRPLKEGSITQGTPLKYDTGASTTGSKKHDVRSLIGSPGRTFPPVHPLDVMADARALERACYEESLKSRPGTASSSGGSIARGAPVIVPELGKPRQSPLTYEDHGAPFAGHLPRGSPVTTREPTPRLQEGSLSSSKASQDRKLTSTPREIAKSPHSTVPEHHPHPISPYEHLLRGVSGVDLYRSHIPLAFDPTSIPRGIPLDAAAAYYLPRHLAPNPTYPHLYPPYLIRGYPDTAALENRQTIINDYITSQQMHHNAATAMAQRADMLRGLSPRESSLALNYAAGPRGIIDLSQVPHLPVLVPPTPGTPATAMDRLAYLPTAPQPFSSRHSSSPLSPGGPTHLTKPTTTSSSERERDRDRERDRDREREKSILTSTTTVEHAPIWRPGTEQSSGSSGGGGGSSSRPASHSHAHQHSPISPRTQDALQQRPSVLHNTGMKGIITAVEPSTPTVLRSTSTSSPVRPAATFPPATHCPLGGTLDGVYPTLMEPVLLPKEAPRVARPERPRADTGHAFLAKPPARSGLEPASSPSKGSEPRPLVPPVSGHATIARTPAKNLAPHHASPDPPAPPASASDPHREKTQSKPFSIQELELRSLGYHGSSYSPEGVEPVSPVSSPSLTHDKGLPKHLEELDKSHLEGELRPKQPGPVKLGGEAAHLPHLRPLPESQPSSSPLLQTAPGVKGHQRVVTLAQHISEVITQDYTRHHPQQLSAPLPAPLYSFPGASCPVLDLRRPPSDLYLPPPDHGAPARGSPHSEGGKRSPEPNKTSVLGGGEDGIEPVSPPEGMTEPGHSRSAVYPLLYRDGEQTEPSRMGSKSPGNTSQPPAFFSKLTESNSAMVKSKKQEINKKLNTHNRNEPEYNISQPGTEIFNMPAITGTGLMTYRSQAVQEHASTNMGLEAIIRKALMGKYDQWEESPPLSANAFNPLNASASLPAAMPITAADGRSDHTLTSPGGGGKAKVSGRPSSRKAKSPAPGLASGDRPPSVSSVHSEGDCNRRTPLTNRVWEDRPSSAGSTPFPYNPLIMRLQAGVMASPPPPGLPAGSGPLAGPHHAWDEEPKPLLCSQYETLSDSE
Chain of Bcl-2-like protein 1 (Q07817 whole entry, the tested form may be a part): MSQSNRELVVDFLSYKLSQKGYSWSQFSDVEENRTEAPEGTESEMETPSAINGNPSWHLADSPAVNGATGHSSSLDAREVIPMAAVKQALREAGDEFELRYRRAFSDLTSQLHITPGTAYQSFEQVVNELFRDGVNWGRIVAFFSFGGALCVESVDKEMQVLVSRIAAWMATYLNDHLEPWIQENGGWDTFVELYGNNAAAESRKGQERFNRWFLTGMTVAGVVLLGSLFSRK
Chain of Photoreceptor-specific nuclear receptor (Q9Y5X4 whole entry): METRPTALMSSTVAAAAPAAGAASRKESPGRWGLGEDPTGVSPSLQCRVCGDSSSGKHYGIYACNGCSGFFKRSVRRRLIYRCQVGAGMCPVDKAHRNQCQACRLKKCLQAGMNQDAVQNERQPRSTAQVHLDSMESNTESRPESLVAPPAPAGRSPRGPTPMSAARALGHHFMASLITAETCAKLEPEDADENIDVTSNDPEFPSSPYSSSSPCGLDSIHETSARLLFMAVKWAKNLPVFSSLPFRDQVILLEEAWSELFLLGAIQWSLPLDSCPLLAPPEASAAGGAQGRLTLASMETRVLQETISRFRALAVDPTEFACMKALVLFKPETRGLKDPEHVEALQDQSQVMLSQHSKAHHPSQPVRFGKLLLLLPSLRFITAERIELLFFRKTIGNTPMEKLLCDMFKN

## CN1CCN(CCCN2c3ccccc3Sc3ccc(Cl)cc32)CC1 [PROCHLORPERAZINE]
[1]
  CC50: 29.4 µM (active)
[2]
  IC50: 19.1 µM (active)
[3]
  IC50: 3.77 µM (active)
[4]
  AC50: 4.93 µM (active)

## O=C1NCCc2c1[nH]c1c(Cl)ccc(Cl)c21
[5]
  IC50: 10.2 µM (not active)

## Cc1ccc(NC(=O)C2CC2c2ccccc2)c([N+](=O)[O-])c1 (stereo not drawn)
[6]
  EC50: 11.4 µM (active)

## COc1cccc(-c2csc3nnc(SCC(=O)c4ccc(NC(C)=O)cc4)n23)c1
[7]
  IC50: 6.73 µM (active)
[8]
  IC50: 4.9 µM (active)
[9]
  IC50: > 66.6 µM (inactive)
[10]
  IC50: 10.6 µM (active)

## COc1ccc(NC(=O)/C(=C/c2cccnc2)NC(=O)c2cccs2)cc1
[11]
  IC50: > 100 µM (inactive)
[12]
  IC50: > 100 µM (not active)

## c1ccc2c(c1)CSc1sccc1C2=C1CCNCC1
[13]
  IC50: 1.71 µM (active)

## CN1CCN(C2=C(Cl)C(=O)N(c3cc(Cl)cc(Cl)c3)C2=O)CC1
[14]
  IC50: > 100 µM (not active)
[15]
  IC50: 1.66 µM (active)
[16]
  IC50: 2.44 µM (active)

## Sc1nnc(-c2ccncc2)n1/N=C/c1cn(-c2ccccc2)nc1-c1ccccc1
[17]
  EC50: > 29.9 µM (not active)

## CC1=C(C#N)C(=O)N(CCO)C(=O)/C1=N/Nc1ccc2c(c1)COC2=O
[18]
  EC50: > 100 µM (active)
[19]
  EC50: 9.38 µM (active)
[20]
  AC50: 9.69 µM (active)

## CN(C)CCNc1c2c(c(C#N)c3nc4ccccc4n13)CCCC2
[21]
  EC50: < 0.1 µM (active)
[22]
  EC50: > 60 µM (not active)
[23]
  IC50: 20.9 µM (active)
[24]
  EC50: 0.11 µM (active)

## Cc1cccc(NC(=O)CNC(=O)c2cccc(-n3cccc3)c2)c1C
[25]
  IC50: 8.77 µM (active)
[26]
  IC50: > 109 µM (not active)
[27]
  IC50: 3.97 µM (active)
[28]
  AC50: 1.55 µM (active)
[29]
  AC50: > 70 µM (inactive)
[30]
  AC50: > 70 µM (inactive)

## O=c1c2c3c(sc2n2cnnc2n1Cc1ccccc1)CN(Cc1ccccc1)CC3
[31]
  EC50: 12.9 µM (active)
[32]
  EC50: 11.6 µM (active)

## CS(=O)(=O)c1nc(S(=O)(=O)c2ccc(Cl)cc2)c(N2CCC3(CC2)OCCO3)s1
[33]
  EC50: > 12 µM (not active)
[34]
  EC50: < 0.1 µM (active)
[35]
  EC50: > 120 µM (not active)
[36]
  EC50: > 12 µM (not active)
[37]
  EC50: 0.71 µM (active)

## COCCNC(=O)CN(C)CC(=O)c1cc(C)n(Cc2ccccc2)c1C
[38]
  EC50: > 30 µM (not active)
